Data published in patent US20140135310A1, “SULPHONAMIDE DERIVATIVES OF ALICYCLIC AMINES FOR THE TREATMENT OF CENTRAL NERVOUS SYSTEM DISEASES” (Adamed Sp. z o.o., priority 2011, published 2014).

Tests used:
[1] = target: T1, 5-HT2C receptor (Homo sapiens, UniProt P28335); test: Radioligand binding assay, serotoninergic 5-HT2C receptors; details: test compound 1×10^−6 M
T1 construct: expressed in transfected cells; host or cells: HEK-293 cells
T1 sequence (P28335 33-458): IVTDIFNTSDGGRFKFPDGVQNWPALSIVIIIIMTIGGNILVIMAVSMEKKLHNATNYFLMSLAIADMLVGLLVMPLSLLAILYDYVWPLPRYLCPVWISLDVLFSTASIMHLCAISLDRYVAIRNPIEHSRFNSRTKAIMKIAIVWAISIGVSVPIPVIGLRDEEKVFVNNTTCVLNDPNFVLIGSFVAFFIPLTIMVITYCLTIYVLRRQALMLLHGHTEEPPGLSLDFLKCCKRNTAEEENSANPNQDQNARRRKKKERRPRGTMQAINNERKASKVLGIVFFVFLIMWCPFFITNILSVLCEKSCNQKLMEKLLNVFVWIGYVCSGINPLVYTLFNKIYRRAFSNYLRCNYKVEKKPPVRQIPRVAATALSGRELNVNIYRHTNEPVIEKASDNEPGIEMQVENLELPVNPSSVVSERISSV

[2] = target: dopaminergic receptors D2 (Homo sapiens, UniProt P14416); test: Radioligand binding assay, dopaminergic D2 receptors; details: for D2 [%] / inhibition at 1 µM: binding assay, test compound 1×10^−6 M; for Ki: read-out: Inhibition constants Ki for D2 receptors, D2
Chain of dopaminergic receptors D2 (P14416 whole entry): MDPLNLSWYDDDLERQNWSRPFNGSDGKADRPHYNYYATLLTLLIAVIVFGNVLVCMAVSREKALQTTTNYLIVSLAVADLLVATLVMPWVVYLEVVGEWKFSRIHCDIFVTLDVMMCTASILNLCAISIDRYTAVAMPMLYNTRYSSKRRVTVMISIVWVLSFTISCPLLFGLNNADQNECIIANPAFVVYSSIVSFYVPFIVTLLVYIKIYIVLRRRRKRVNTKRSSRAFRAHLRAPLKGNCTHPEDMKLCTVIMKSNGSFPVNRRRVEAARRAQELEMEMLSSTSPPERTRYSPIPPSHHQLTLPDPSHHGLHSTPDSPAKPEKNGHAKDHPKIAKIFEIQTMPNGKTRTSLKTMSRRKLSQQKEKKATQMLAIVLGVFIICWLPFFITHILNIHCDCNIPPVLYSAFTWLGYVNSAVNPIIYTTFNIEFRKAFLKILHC
Method in brief: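 Values derive from competition curves: percent inhibition of control specific binding was fitted by Hill non-linear regression for IC50, and Ki calculated with Cheng–Prusoff from radioligand concentration and KD (Scatchard). Bound ligand was detected by scintillation counting.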

[3] = target: T2, α2C adrenergic receptors (Homo sapiens, UniProt P18825); test: Radioligand binding assay, adrenergic α2C receptors; details: test compound 1×10^−6 M
T2 construct: expressed in transfected cells; host or cells: CHO cells
T2 sequence (P18825 1-462): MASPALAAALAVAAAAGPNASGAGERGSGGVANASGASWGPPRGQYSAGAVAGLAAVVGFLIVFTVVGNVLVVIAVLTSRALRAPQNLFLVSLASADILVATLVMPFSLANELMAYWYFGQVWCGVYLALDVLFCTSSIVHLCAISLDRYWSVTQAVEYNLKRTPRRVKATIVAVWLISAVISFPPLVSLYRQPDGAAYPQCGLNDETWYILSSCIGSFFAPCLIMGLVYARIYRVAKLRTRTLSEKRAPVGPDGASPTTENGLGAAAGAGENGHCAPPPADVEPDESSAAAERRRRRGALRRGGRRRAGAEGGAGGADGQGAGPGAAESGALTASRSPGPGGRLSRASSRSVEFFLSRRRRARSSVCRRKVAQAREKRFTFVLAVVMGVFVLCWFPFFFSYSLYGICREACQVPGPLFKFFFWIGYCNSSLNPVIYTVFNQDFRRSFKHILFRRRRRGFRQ
Method in brief: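 Competitive radioligand binding at human α2C receptors, with scintillation counting. Nonspecific binding defined with excess unlabelled ligand; results given as % inhibition of control specific binding. IC50 from Hill-equation fits of competition curves; Ki via Cheng-Prusoff using radioligand concentration and Scatchard-derived KD.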

[4] = target: T3, 5-HT6 receptor (Homo sapiens, UniProt P50406); test: Radioligand binding assay, serotoninergic 5-HT6 receptors; details: for 5-HT6 [%] / inhibition at 1 µM: binding assay result in %, Table 5a; for Ki: read-out: Inhibition constants Ki, 5-HT6
T3 construct: purchased PerkinElmer
T3 sequence (P50406 whole entry): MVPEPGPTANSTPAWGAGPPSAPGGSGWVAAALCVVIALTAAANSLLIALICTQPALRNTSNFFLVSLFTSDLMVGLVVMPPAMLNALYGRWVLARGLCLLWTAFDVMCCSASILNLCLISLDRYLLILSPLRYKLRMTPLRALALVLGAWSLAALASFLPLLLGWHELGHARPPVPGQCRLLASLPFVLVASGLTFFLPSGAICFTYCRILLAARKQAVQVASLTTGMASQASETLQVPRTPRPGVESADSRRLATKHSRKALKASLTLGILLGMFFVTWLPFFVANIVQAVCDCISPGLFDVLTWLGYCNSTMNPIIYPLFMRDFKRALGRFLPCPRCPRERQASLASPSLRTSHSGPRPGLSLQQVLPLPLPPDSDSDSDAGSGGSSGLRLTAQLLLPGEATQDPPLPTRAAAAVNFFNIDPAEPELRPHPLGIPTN
Method in brief: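 Values are Ki from Cheng–Prusoff, taking IC50 from Hill nonlinear regression of competition curves and KD from a Scatchard plot. Specific binding was total minus binding with excess unlabelled ligand. Radioligand displacement was detected by scintillation counting, and data were also reported as percent of control specific binding.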

[5] = target: 5-HT7 serotoninergic receptors (Homo sapiens, UniProt P34969); test: Cellular functional assay, 5-HT7 serotoninergic receptors; assay type: cell-based; details: for 5-HT7 ag [%]: agonist mode, percent of control specific agonist response; for 5-HT7 antag [%]: antagonist mode
Chain of 5-HT7 serotoninergic receptors (P34969 whole entry): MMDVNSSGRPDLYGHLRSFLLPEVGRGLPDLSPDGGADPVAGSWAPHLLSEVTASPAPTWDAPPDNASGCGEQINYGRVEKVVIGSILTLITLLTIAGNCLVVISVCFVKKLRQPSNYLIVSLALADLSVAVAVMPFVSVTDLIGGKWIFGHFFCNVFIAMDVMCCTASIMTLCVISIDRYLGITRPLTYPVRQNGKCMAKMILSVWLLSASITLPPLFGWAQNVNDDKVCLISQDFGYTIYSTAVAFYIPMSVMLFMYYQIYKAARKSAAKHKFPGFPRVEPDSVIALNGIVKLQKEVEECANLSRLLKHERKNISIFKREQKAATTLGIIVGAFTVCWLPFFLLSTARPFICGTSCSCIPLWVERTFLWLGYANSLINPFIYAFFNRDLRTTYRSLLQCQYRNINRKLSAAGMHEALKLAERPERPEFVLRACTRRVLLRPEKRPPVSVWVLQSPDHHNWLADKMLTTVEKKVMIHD
Procedure: The results are expressed as a percent of control specific agonist response ((measured specific response/control specific agonist response)×100) obtained in the presence of the test compounds.
The EC50 values (concentration producing a half-maximal specific response) and IC50 values (concentration causing a half-maximal inhibition of the control specific agonist response) were determined by non-linear regression analysis of the concentration-response curves generated with mean replicate values using Hill equation curve fitting (Y=D+[(A−D)/(1+(C/C50)nH)], where Y=specific response, D=minimum specific response, A=maximum specific response, C=compound concentration, and C50=EC50 or IC50, and nH=slope factor). This analysis was performed using a software developed at Cerep (Hill software) and validated by comparison with data generated by the commercial software SigmaPlot® 4.0 for Windows® (© 1997 by SPSS Inc.).
For the antagonists, the apparent dissociation constants (Kb) were calculated using the modified Cheng Prusoff equation (Kb=IC50/(1+(A/EC50A)), where A=concentration of reference agonist in the assay, and EC50A=EC50 value of the reference agonist).

[6] = target: T4, serotonin transporter (SERT) (Homo sapiens, UniProt P31645); test: Radioligand binding assay, serotonin transporter (SERT); details: binding assay, test compound 1×10^−6 M
T4 construct: expressed in transfected cells; host or cells: CHO cells
T4 sequence (P31645 whole entry): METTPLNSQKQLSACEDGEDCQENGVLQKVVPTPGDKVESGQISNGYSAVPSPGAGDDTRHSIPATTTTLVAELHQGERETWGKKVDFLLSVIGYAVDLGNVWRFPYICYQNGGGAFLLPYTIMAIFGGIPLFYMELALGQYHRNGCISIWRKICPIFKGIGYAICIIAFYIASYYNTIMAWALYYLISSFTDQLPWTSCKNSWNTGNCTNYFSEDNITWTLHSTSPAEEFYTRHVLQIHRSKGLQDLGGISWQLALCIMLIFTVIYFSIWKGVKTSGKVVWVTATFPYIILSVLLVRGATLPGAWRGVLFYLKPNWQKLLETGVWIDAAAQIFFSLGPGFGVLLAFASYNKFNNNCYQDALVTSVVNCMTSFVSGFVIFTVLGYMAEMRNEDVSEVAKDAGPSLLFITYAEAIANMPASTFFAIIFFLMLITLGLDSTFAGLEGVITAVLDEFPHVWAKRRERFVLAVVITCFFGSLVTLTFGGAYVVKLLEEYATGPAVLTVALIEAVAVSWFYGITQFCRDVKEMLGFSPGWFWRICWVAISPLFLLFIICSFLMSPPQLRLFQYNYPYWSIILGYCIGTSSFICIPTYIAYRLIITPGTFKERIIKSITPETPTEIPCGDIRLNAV
Method in brief: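 Values are derived from competition curves fitted by the Hill equation to give IC50, then converted to Ki by Cheng-Prusoff with radioligand Kd from Scatchard analysis. Specific binding equals total minus non-specific (excess cold ligand), counted by scintillation, and is also expressed as percent inhibition of control.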

[7] = target: dopaminergic receptors D3 (Homo sapiens, UniProt P35462); test: Radioligand binding assay, dopaminergic D3 receptors; details: test compound 1×10^−6 M
Chain of dopaminergic receptors D3 (P35462 whole entry): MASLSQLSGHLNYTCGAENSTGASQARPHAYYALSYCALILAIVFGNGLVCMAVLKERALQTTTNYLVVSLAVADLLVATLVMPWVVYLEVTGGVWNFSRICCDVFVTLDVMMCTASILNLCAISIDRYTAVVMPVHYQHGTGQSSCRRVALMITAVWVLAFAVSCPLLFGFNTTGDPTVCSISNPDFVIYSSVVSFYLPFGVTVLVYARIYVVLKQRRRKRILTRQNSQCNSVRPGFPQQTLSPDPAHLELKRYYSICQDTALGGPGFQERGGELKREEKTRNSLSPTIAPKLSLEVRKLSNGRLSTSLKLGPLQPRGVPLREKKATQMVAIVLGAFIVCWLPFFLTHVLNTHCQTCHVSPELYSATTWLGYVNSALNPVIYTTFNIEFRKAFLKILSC
Method in brief: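 Scintillation read-out. Specific = total − nonspecific (excess cold ligand). Data as % of control specific binding / % inhibition; IC50 by Hill fit; Ki = IC50/(1+L/KD), KD from Scatchard plot.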

| Compound | 5-HT2C [%] [1] | D2 [%] [2] | α2C [%] [3] | 5-HT6 [%] [4] | 5-HT7 ag [%] [5] | 5-HT7 antag [%] [5] | SERT [%] [6] | D3 [%] [7] | inhibition at 1 µM [1] | inhibition at 1 µM [2] | inhibition at 1 µM [3] | inhibition at 1 µM [4] | inhibition at 1 µM [6] | inhibition at 1 µM [7] | Ki [2] | Ki [4] | Kb ([5]; apparent dissociation constant, modified Cheng Prusoff equation, read-out: 5-HT7 antag Kb) |
| --- | --- | --- | --- | --- | --- | --- | --- | --- | --- | --- | --- | --- | --- | --- | --- | --- | --- |
| Cc1cccc(S(=O)(=O)NC2CN(CCOc3cccc4c3OCCO4)C2)c1 [Compound 93, N-[1-[2-(2,3-Dihydro-1,4-benzodioxan-8-yloxy)ethyl]azetidin-3-yl]-3-methyl-benzenesulphonamide] | 50% | 78% | 84% | 29% | 13% | 76% | 23% | 75% | – | – | – | – | – | – | – | – | – |
| O=S(=O)(NC1CN(CCOc2cccc3c2OCCO3)C1)c1cccc2ccccc12 [Compound 94, N-[1-[2-(2,3-Dihydro-1,4-benzodioxan-8-yloxy)ethyl]azetidin-3-yl]-naphthalene-1-sulphonamide] | 91% | 102% | 106% | 65% | 19% | 68% | 62% | 105% | – | – | – | – | – | – | – | – | – |
| CC(C)(C)c1ccc(S(=O)(=O)NCC2CN(CCOc3cccc4c3OCCO4)C2)cc1 [Compound 181, 4-tert-Butyl-N-[[1-[2-(2,3-dihydro-1,4-benzodioxin-5-yloxy)ethyl]azetidin-3-yl]methyl]benzenesulphonamide] | – | – | – | – | 0% | – | – | – | 93% | 73% | 96% | 30% | 26% | 77% | – | – | – |
| O=S(=O)(NCC1CN(CCOc2cccc3c2OCCO3)C1)c1ccc(Cl)c(Cl)c1 [Compound 183, 3,4-Dichloro-N-[[1-[2-(2,3-dihydro-1,4-benzodioxin-5-yloxy)ethyl]azetidin-3-yl]methyl]benzenesulphonamide] | – | – | – | – | 2% | – | – | – | 98% | 92% | 99% | 81% | 48% | 79% | – | – | – |
| O=S(=O)(N[C@@H]1CCN(CCCc2noc3cc(F)ccc23)C1)c1cc2ccccc2s1 [Compound 196, N-[(3R)-1-[3-(6-Fluoro-1,2-benzoxazol-3-yl)propyl]pyrrolidin-3-yl]benzo-thiophene-2-sulphonamide] | – | – | – | – | 0% | – | – | – | 86% | 100% | 89% | 99% | 42% | 94% | 0.8 nM | 6.4 nM | 0.57 nM |
| O=S(=O)(N[C@H]1CCN(CCCc2noc3cc(F)ccc23)C1)c1cc2ccccc2s1 [Compound 197, N-[(3S)-1-[3-(6-Fluoro-1,2-benzoxazol-3-yl)propyl]pyrrolidin-3-yl]benzo-thiophene-2-sulphonamide] | – | – | – | – | 0% | – | – | – | 84% | 101% | 90% | 97% | 58% | 83% | 5.8 nM | 16 nM | – |
| O=S(=O)(N[C@@H]1CCN(CCCc2noc3cc(F)ccc23)C1)c1cc2ccc(Cl)cc2s1 [Compound 198, 6-Chloro-N-[(3R)-1-[3-(6-fluoro-1,2-benzoxazol-3-yl)propyl]pyrrolidin-3-yl]benzothiophene-2-sulphonamide] | – | – | – | – | 1% | – | – | – | 86% | 99% | 80% | 97% | 44% | 97% | 1.8 nM | 8.6 nM | – |
| O=S(=O)(N[C@H]1CCN(CCCc2noc3cc(F)ccc23)C1)c1cc2ccc(Cl)cc2s1 [Compound 199, 6-Chloro-N-[(3S)-1-[3-(6-fluoro-1,2-benzoxazol-3-yl)propyl]pyrrolidin-3-yl]benzothiophene-2-sulphonamide] | – | – | – | – | 1% | – | – | – | 83% | 96% | 82% | 91% | 39% | 88% | 4.4 nM | 99 nM | – |
| O=S(=O)(N[C@@H]1CCN(CCCc2noc3cc(F)ccc23)C1)c1ccc2cc(Cl)ccc2c1 [Compound 200, 6-Chloro-N-[(3R)-1-[3-(6-fluoro-1,2-benzoxazol-3-yl)propyl]pyrrolidin-3-yl]naphthalene-2-sulphonamide] | – | – | – | – | −1% | – | – | – | 77% | 100% | 96% | 99% | 74% | 94% | 0.1 nM | 10 nM | – |
| Cc1c(S(=O)(=O)N[C@@H]2CCN(CCCc3noc4cc(F)ccc34)C2)sc2ccc(F)cc12 [Compound 202, 5-Fluoro-N-[(3R)-1-[3-(6-fluoro-1,2-benzoxazol-3-yl)propyl]pyrrolidin-3-yl]-3-methyl-benzothiophene-2-sulphonamide] | – | – | – | – | −3% | – | – | – | 88% | 101% | 95% | 100% | 58% | 96% | 1.2 nM | 7.1 nM | – |
| Cc1c(S(=O)(=O)N[C@H]2CCN(CCCc3noc4cc(F)ccc34)C2)sc2ccc(F)cc12 [Compound 203, 5-Fluoro-N-[(3S)-1-[3-(6-fluoro-1,2-benzoxazol-3-yl)propyl]pyrrolidin-3-yl]-3-methyl-benzothiophene-2-sulphonamide] | – | – | – | – | 0% | – | – | – | 90% | 101% | 93% | 100% | 73% | 95% | 0.9 nM | 12 nM | – |
| Cc1c(S(=O)(=O)N[C@H]2CCN(CCCc3noc4cc(F)ccc34)C2)sc2ccc(Cl)cc12 [Compound 205, 5-Chloro-N-[(3S)-1-[3-(6-fluoro-1,2-benzoxazol-3-yl)propyl]pyrrolidin-3-yl]-3-methyl-benzothiophene-2-sulphonamide] | – | – | – | – | −1% | – | – | – | 86% | 99% | 86% | 94% | 45% | 99% | 1.6 nM | 41 nM | – |
